Test results published in patent US12473273B2, “Quinoline compounds and compositions for inhibiting EZH2” (Novartis AG, priority 2020, dated 2025).
pIC50: −log10 of the molar value.

What was measured:
[1] = biological target: wild type PRC2 (wtPRC2) complex (Homo sapiens, UniProt Q15910); experiment: EZH2 LC-MS Assay; type: biochemical; details: 40 nM wtPRC2 complex, 30 uM SAM, 1.5 uM H3K27me1 and 3 uM H3K27me3 peptides; SAH production
Method: Representative compounds of the invention were serially and separately diluted 3-fold in DMSO to obtain twelve concentrations. Then the test compounds at each concentration (120 nL of each) were transferred by Mosquito into a 384-well Perkin Elmer ProxiPlate 384 plus plates. Solutions (6 μL) of 80 nM wild type PRC2 (wtPRC2) complex and 60 µM SAM in reaction buffer (20 mM Tris, pH 8.0, 0.1% BSA, 0.01% Triton, 0.5 mM DTT) were added to the wells that were then incubated with the test compound for 20 min. A 6 μL solution of 3 µM of the substrate peptide H3K27me1 (histone H3 [21-44]-K27me1-biotin) and 6 μM regulatory peptide H3K27me3 (histone H3 [21-44]-K27me3) in reaction buffer was added to initiate each reaction. The final components in the reaction solution include 40 nM wtPRC2 complex, 30 µM SAM, 1.5 µM H3K27me1 and 3 µM H3K27me3 peptides with varying concentration of the compounds. A positive control consisted of the enzyme at 40 nM, 30 μM SAM, 1.5 µM H3K27me1 and 3 µM H3K27me3 in the absence of the test compound, and a negative control consisted of 30 µM SAM, 1.5 µM H3K27me1 and 3 μM H3K27me3 only. Each reaction was incubated at room temperature for 120 min, then stopped by addition of 3 μL per of quench solution (2.5% TFA with 320 nM d4-SAH). The reaction mixture was centrifuged (Eppendorf centrifuge 5810, Rotor A-4-62) for 2 min at 2000 rpm and read on an API 4000 triple quadrupole mass spec with Turbulon Spray (Applied Biosystem) coupled with Prominence UFLC (Shimadzu). The levels of SAH production were normalized based on the values coming from the positive and negative controls to give percent enzyme activities. The data were fit to a dose response equation using the program Helios to get the […] values of the test compound.

[2] = test system: H3K27 methylation in G401 cell; experiment: ELISA (H3K27 methylation) assay; type: cell-based; details: cultured 48 h with compound, normalized using H3 signal
Method: ELISA (H3K27 methylation) assay
Representative compounds of the invention were serially and separately diluted 3-fold in DO to obtain a total of eight or twelve concentrations. Then the compounds were added to G401 cell cultured in 384-well plate at 1:500 dilution to obtain the highest concentration of 20 μM. The cells were further cultured for 48 h before ELISA procedure.
Histone extraction: Cells, in 384-well plate, were washed with PBS (10 x PBS buffer (80 g NaCl (Sigma, S3014), 2 g KCl (Sigma, 60128), 14.4 g Na2HPO4 (Sigma, S5136), 2.4 g KH2PO4 (Sigma, P9791) to 1 L water, pH to 7.4) and lysed with the addition of lysis buffer (0.4N HCl; 45 μl per well). The plate was gently agitated at 4° C. for 30 min. The cell lysate was neutralized with neutralization buffer (0.5 M sodium phosphate dibasic, pH 12.5. 1 mM DTT; 36 µL per well). The plate was agitated to ensure the lysates were well mixed prior to the ELISA protocol.
ELISA protocol: Cell lysates were transferred to the wells of a 384-well plate and the final volume was adjusted to 50 μL per well with PBS. The plate was sealed, centrifuged at 2,000 rpm for 2 min and incubated at 4° C. for about 16 h. The plate was washed with TBST buffer (1 x TBS (10x TBS: 24.2 g Tris (Sigma, T6066), 80 g NaCl (Sigma, S3014) to 1 L of water and adjust pH to 7.6 with HCl) with 0.1% Tween-20). Blocking buffer (TBST, 5% BSA; 50 µL per well) was added and the plate was incubated for 1 h at rt. The blocking buffer was removed and primary antibody was added (30 μL per well). The following dilutions were performed with blocking buffer: for anti-H3K27me3 antibody (Cell Signaling Technology, #9733), dilution was 1:1000; for anti-H3K27me2 antibody (Cell Signaling Technology, #9288), dilution was 1:100; for anti-H3 antibody (Abcam, Cat #24834), dilution was 1:1000. The primary antibody was incubated in the plate at rt for 1 h. The wells were washed with TBST and incubated with secondary antibody for 1 h at rt. For secondary antibodies, the following dilutions were carried out with blocking buffer: anti-rabbit antibody (Jackson ImmunoResearch, #111-035-003), dilution was 1:2000; and anti-mouse antibody (Cell signaling technology, #7076), dilution was 1:1000.
After 1 h of incubation at rt, the wells were washed with TBST. ECL substrate (Pierce, #34080) was added at 30 μL per well and the plates were centrifuged at 2,000 rpm for 2 min. The signal was read using a PerkinElmer Envision Reader. The H3K27 methylation readouts were normalized using H3 signal and then percentage inhibition was calculated against the samples treated with DO. The data were fit to a dose response curve using the program Helios to get the IC50 values of the test compound.

Chain of wild type PRC2 (wtPRC2) complex (Q15910 whole entry): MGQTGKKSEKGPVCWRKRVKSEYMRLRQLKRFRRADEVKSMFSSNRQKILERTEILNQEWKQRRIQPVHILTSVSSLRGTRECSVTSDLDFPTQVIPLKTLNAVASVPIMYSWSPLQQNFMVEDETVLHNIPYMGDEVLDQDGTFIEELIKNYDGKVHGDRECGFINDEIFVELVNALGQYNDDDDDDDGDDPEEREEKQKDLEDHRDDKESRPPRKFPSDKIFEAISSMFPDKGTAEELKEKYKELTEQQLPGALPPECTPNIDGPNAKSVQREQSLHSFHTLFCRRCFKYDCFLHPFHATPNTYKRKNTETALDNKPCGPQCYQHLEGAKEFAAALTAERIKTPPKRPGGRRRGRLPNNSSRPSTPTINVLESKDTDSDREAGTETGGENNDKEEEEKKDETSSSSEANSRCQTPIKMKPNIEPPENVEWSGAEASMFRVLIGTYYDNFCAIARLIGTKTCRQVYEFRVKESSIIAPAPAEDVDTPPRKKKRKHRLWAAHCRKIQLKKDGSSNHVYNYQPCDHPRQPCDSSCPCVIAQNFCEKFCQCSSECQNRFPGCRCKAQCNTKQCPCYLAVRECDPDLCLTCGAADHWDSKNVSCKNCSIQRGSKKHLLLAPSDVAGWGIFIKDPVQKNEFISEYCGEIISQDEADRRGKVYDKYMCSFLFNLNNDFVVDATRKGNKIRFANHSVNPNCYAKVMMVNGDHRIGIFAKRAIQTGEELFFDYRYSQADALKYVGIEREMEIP
Chain of wild type PRC2 (wtPRC2) complex (O75530 whole entry partner): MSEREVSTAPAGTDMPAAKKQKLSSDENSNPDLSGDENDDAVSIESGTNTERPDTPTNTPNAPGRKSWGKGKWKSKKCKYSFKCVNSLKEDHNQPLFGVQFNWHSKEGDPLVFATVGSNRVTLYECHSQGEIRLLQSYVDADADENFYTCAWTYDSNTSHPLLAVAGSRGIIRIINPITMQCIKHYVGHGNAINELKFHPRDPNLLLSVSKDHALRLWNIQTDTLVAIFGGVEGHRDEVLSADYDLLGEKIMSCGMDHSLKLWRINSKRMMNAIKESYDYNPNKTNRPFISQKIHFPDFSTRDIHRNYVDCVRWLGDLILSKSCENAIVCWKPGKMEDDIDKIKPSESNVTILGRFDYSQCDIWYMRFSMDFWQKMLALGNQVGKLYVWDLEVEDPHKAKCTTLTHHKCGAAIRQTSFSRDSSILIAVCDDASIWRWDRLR
Chain of wild type PRC2 (wtPRC2) complex (Q15022 whole entry partner): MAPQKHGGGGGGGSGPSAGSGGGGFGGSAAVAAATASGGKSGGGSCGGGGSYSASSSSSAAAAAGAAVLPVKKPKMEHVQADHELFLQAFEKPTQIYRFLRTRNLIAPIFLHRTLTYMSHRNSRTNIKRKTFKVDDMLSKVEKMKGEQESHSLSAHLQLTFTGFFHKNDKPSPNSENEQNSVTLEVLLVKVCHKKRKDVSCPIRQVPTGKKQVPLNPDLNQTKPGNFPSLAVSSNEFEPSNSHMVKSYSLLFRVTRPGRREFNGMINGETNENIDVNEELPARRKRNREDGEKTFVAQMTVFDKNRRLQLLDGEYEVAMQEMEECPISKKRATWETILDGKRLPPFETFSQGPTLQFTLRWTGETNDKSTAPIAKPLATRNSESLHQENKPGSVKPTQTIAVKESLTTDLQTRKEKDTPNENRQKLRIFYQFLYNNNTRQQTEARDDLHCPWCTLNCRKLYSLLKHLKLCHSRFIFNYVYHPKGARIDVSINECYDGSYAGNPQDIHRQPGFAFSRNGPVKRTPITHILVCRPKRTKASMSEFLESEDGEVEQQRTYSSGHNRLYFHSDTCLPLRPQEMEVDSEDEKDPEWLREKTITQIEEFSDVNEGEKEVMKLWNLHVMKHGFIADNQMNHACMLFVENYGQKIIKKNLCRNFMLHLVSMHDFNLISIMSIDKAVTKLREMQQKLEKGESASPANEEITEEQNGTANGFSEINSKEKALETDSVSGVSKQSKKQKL

pIC50 [1]: > 7.30
Compound: Cc1ccc2ccc(N[C@H]3CC[C@H](CNc4ncc([C@@H](CO)C(=O)NC5COC5)cn4)CC3)nc2c1Cl (single isomer, unassigned) [Example 8, (S)-2-(2-((((1r,4S)-4-((8-chloro-7-methylquinolin-2-yl)amino)cyclohexyl)methyl)amino)pyrimidin-5-yl)-3-hydroxy-N-(oxetan-3-yl)propanamide; or (R)-2-(2-((((1r,4R)-4-((8-chloro-7-methylquinolin-2-yl)amino)cyclohexyl)methyl)amino)pyrimidin-5-yl)-3-hydroxy-N-(oxetan-3-yl)propanamide]
pIC50 [2]: > 8.00
